According to publication PMC6941110, “Mutation of Aspartate 238 in FAD Synthase Isoform 6 Increases the Specific Activity by Weakening the FAD Binding” (International Journal of Molecular Sciences, 2019):
Like-named read-outs stand apart in the source and are kept apart here. Each block holds one compound with its values, some of them ahead of it.

What was measured:
[1] = molecular target: T1, hFADS6 (human FAD synthase isoform 6) (Homo sapiens, UniProt Q8NFF5); assay: stopped-flow flavin fluorescence, koff/kon; format: binding
T1 construct: gene FLAD1; 320-residue isoform 6, FADSy domain only, lacks N-terminal FADHy domain; monomer
T1 sequence (Q8NFF5 268-587): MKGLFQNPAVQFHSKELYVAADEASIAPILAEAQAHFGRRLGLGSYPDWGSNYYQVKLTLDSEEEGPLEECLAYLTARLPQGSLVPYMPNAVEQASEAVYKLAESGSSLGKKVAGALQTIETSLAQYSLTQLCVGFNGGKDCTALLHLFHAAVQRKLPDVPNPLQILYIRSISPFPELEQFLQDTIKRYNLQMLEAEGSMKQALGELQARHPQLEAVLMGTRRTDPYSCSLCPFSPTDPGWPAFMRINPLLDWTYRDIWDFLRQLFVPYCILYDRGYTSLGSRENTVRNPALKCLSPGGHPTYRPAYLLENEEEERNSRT

[2] = molecular target: T1, hFADS6 (human FAD synthase isoform 6); assay: biochemical; parameters: Stopped-flow flavin fluorescence, FAD binding with 250 uM PPi; kon/koff from kobs1 versus flavin concentration, 25 °C, pH 7.0; conditions: with 250 uM PPi
Description: (§1) Pre-steady-state kinetic experiments were performed using stopped-flow spectroscopy on an Applied Photophysics SX17.MV spectrophotometer using the Pro-Data SX software (Applied Photophysics Ltd. Leatherhead, Surrey, UK). The fluorescence of flavins was measured in a continuous assay with an excitation wavelength of 445 nm, while the emission was recovered using a >530 nm cut-off filter and the [compound left out] was set to 350 V. Then, 100 nM hFADS6 samples were mixed with samples that contained increasing concentrations of FMN or FAD (which varied in the range 0.025–1 μM), in the absence and in the presence of saturating concentrations of their respective co-substrates ATP or PPi (250 µM). All the indicated concentrations are final ones in the stopped-flow observation cell. Measurements were carried out at 25 °C in 50 mM HEPES/NaOH, 10 mM MgCl2, pH 7.0, 5 mM β-mercaptoethanol. At least three reproducible kinetic traces of changes in fluorescence were recorded for each condition and fitted to exponential equations (usually one or two exponentials were used) (2) y=∑Aie^−kobs,it where Ai and kobs,i represent the amplitude and the observed rate constant, respectively, for each of the processes (i) that contribute to the overall time-dependent fluorescence change for each experimental condition. […] When similarly evaluating the reverse reaction, kinetic traces for both WT and the D238A mutant show an initial fluorescence exponential decay of small amplitude that is followed by a linear increase of the signal (Figure 8b). We again deduce the kinetics for binding of FAD from the exponential decay, while rates for the subsequent linear fluorescence increase relate well to steady-state kinetic parameters for the transformation of FAD into FMN. Although the small amplitudes for FAD binding make it difficult to accurately determine kobs values, both parameters show a dependence on the substrate concentration (Supplementary Figure S3a,b). […] Normalized kinetic traces for the flavin fluorescence evolution upon mixing the protein with substrates for the (a) forward (ATP + FMN) and (b) reverse (PPi + FAD) reactions. Traces for WT and D238A hFADS are shown in colored grey and red scales as a function of the flavin given concentrations. Normalized signals regarding the fluorescence of the forward reaction at maximum FMN concentration are shown. Kinetic traces were obtained at 25 °C in mixtures containing 100 nM of protein and 250 µM of either ATP (a) or PPi (b) in 50 mM HEPES/NaOH, 10 mM MgCl2, pH 7.0, 5 mM β-mercaptoethanol. All concentrations are final after mixing.

[3] = molecular target: T2, hFADS6 (human FAD synthase isoform 6) (Homo sapiens, UniProt Q8NFF5, D505A); assay: biochemical; parameters: Stopped-flow flavin fluorescence, FAD binding with 250 uM PPi; kon/koff from kobs1 versus flavin concentration, 25 °C, pH 7.0; conditions: error at least 30%, with 250 uM PPi
T2 construct: gene FLAD1; 320-residue isoform 6, FADSy domain only, lacks N-terminal FADHy domain; monomer
T2 sequence (Q8NFF5 268-587 D505A): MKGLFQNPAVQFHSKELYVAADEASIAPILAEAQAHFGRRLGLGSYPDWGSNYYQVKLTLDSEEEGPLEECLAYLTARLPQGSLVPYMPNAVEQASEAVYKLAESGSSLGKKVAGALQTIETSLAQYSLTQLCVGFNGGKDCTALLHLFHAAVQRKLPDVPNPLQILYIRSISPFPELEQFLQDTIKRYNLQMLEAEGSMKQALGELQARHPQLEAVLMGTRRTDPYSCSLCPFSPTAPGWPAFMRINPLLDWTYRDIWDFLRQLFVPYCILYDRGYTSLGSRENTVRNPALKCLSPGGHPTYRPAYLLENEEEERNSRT
Description: as §1

[4] = molecular target: T2, hFADS6 (human FAD synthase isoform 6); assay: stopped-flow flavin fluorescence, koff/kon; format: binding
Text: stopped-flow flavin fluorescence, koff/kon on hFADS6 (human FAD synthase isoform 6) | obtained values are again indicative of the mutant binding FAD slower and weaker than the WT

[5] = molecular target: T1, hFADS6 (human FAD synthase isoform 6); assay: biochemical; parameters: Stopped-flow flavin fluorescence, FMN binding with 250 uM ATP; kon/koff from kobs1 versus flavin concentration, 25 °C, pH 7.0; conditions: with 250 uM ATP
Description: (§2) Pre-steady-state kinetic experiments were performed using stopped-flow spectroscopy on an Applied Photophysics SX17.MV spectrophotometer using the Pro-Data SX software (Applied Photophysics Ltd. Leatherhead, Surrey, UK). The fluorescence of flavins was measured in a continuous assay with an excitation wavelength of 445 nm, while the emission was recovered using a >530 nm cut-off filter and the [compound left out] was set to 350 V. Then, 100 nM hFADS6 samples were mixed with samples that contained increasing concentrations of FMN or FAD (which varied in the range 0.025–1 μM), in the absence and in the presence of saturating concentrations of their respective co-substrates ATP or PPi (250 µM). All the indicated concentrations are final ones in the stopped-flow observation cell. Measurements were carried out at 25 °C in 50 mM HEPES/NaOH, 10 mM MgCl2, pH 7.0, 5 mM β-mercaptoethanol. At least three reproducible kinetic traces of changes in fluorescence were recorded for each condition and fitted to exponential equations (usually one or two exponentials were used) (2) y=∑Aie^−kobs,it where Ai and kobs,i represent the amplitude and the observed rate constant, respectively, for each of the processes (i) that contribute to the overall time-dependent fluorescence change for each experimental condition. […] In mixtures containing substrates of the forward reaction, ATP and FMN, the relevant decrease in the flavin fluorescence is indicative of internalization of the isoalloxazine or FMN transformation into FAD. These observations also agree with ATP binding to the protein prior to FMN in the bi-bi ordered kinetic mechanism reported for hFADSs. Nonetheless, features for this fluorescence decay also differ between WT and D238A hFADSs (Figure 8a). […] The first exponential decay has observed rate constants (kobs1) in the low seconds range which depend linearly on the FMN concentration, while its amplitude is concentration independent (Supplementary Figure S3a,b). kobs2 for the second exponential decay indicate a slower process nearly FMN concentration independent, with amplitude increasing with FMN concentration (Supplementary Figure S3a,b). […] The derived Kd^FMN, 0.094 ± 0.004 µM, agrees well with the above derived Km^FMN for WT hFADS6. […] Finally, the continuous and linear flavin fluorescence decay established after the exponential processes fits well with the settlement of the catalytic steady-state transformation of FMN into FAD, showing, in addition, rates in the ranges of Vmax and kcat. […] Nonetheless, fluorescence decay related to FMN transformation into FAD follows similar traits to the WT ones (Fig  Figure 8 Dissection of the kinetics of the substrates binding process from the catalytic reaction by stopped-flow spectrophotometry. Normalized kinetic traces for the flavin fluorescence evolution upon mixing the protein with substrates for the (a) forward (ATP + FMN) and (b) reverse (PPi + FAD) reactions. Traces for WT and D238A hFADS are shown in colored grey and red scales as a function of the flavin given concentrations. Normalized signals regarding the fluorescence of the forward reaction at maximum FMN concentration are shown. Kinetic traces were obtained at 25 °C in mixtures containing 100 nM of protein and 250 µM of either ATP (a) or PPi (b) in 50 mM HEPES/NaOH, 10 mM MgCl2, pH 7.0, 5 mM β-mercaptoethanol. All concentrations are final after mixing.

[6] = molecular target: T2, hFADS6 (human FAD synthase isoform 6); assay: biochemical; parameters: Stopped-flow flavin fluorescence, FMN binding with 250 uM ATP; kon/koff from kobs1 versus flavin concentration, 25 °C, pH 7.0; conditions: error at least 30%, with 250 uM ATP
Description: as §2

[7] = molecular target: T2, hFADS6 (human FAD synthase isoform 6); assay: inhibition of FADS activity; format: biochemical; conditions: inhibitor

Kd ([1]; read-out: Kd): 180 ± 40 nM | koff ([2]; read-out: koff (FAD binding)): 0.81 ± 0.05 s⁻¹ | kon ([2]; read-out: kon (FAD binding)): 4.5e+06 ± 600000 M⁻¹ s⁻¹ | koff ([3]; read-out: koff (FAD binding)): 0.35 s⁻¹ | kon ([3]; read-out: kon (FAD binding)): 1.5e+06 M⁻¹ s⁻¹ | Kd [4]: > 300 nM
SMILES: Cc1cc2nc3c(=O)[nH]c(=O)nc-3n(C[C@H](O)[C@H](O)[C@H](O)COP(=O)(O)OP(=O)(O)OC[C@H]3O[C@@H](n4cnc5c(N)ncnc54)[C@H](O)[C@@H]3O)c2cc1C [FAD]

Kd ([1]; read-out: Kd^FMN): 94 ± 4 nM | koff ([5]; read-out: koff (FMN binding)): 0.32 ± 0.01 s⁻¹ | kon ([5]; read-out: kon (FMN binding)): 3.4e+06 ± 100000 M⁻¹ s⁻¹ | Kd ([6]; koff/kon, read-out: Kd FMN): > 180 nM | koff ([6]; read-out: koff (FMN binding)): 0.09 s⁻¹ | kon ([6]; read-out: kon (FMN binding)): 550000 M⁻¹ s⁻¹
SMILES: Cc1cc2nc3c(=O)[nH]c(=O)nc-3n(C[C@H](O)[C@H](O)[C@H](O)COP(=O)(O)O)c2cc1C [FMN]

SMILES: Nc1nc2c(ncn2[C@@H]2O[C@H](COP(=O)(O)OP(=O)(O)OP(=O)(O)O)[C@@H](O)[C@H]2O)c(=O)[nH]1 [GTP]
inhibition of FADS activity [7]: The D238A-hFADS6 was inhibited by GTP and by NADH

SMILES: NC(=O)C1=CN([C@@H]2O[C@H](COP(=O)(O)OP(=O)(O)OC[C@H]3O[C@@H](n4cnc5c(N)ncnc54)[C@H](O)[C@@H]3O)[C@@H](O)[C@H]2O)C=CC1 [NADH]
inhibition of FADS activity [7]: The D238A-hFADS6 was inhibited by GTP and by NADH
